Data taken from patent US8957051B2, “Bicyclic 1, 2, 4-oxadiazoles derivatives as sphingosine-1 phosphate receptors modulators” (Allergan, Inc., priority 2012, dated 2015).

Target: T1, human S1P1 receptor (Homo sapiens, UniProt P21453)
T1 construct: expressed in transfected cells; membranes were used
Assay: GTP γ35S binding assay for S1P1 activity
Assay type: biochemical
Conditions: membranes of cells stably expressing S1P1 receptor, agonist potency
Protocol: Compounds were synthesized and tested for S1P1 activity using the GTP γ^355 binding assay. These compounds may be assessed for their ability to activate or block activation of the human S1P1 receptor in cells stably expressing the S1P1 receptor.
GTP γ^355 binding was measured in the medium containing (mM) HEPES 25, pH 7.4, MgCl2 10, NaCl 100, dithiothreitol 0.5, digitonin 0.003%, 0.2 nM GTP γ^355, and 5 μg membrane protein in a volume of 150 μl. Test compounds were included in the concentration range from 0.08 to 5,000 nM unless indicated otherwise. Membranes were incubated with 100 μM 5′-adenylylimidodiphosphate for 30 min, and subsequently with 10 μM GDP for 10 min on ice. Drug solutions and membrane were mixed, and then reactions were initiated by adding GTP γ^355 and continued for 30 min at 25° C. Reaction mixtures were filtered over Whatman GF/B filters under vacuum, and washed three times with 3 mL of ice-cold buffer (HEPES 25, pH7.4, MgCl2 10 and NaCl 100). Filters were dried and mixed with scintillant, and counted for ^35S activity using a β-counter. Agonist-induced GTP γ^355 binding was obtained by subtracting that in the absence of agonist. Binding data were analyzed using a non-linear regression method. In case of antagonist assay, the reaction mixture contained 10 nM […] in the presence of test antagonist at concentrations ranging from 0.08 to 5000 nM.

T1 sequence (P21453 whole entry): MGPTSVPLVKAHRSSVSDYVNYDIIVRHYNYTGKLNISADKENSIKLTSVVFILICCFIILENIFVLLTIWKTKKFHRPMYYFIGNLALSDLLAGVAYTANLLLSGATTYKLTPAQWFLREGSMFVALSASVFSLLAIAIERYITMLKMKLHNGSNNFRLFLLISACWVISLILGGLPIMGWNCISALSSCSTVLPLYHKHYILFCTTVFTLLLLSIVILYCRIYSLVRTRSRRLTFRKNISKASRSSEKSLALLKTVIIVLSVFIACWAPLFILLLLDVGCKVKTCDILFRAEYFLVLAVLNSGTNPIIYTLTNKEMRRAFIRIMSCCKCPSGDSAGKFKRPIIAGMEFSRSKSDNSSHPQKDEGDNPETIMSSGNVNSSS

SMILES | EC50 [nM]
O=P(O)(O)CCCNCc1ccc(-c2noc(CCCCc3ccccc3)n2)c2cccnc12 [Compound 1, {3-[({5-[5-(4-Phenylbutyl)-1,2,4-oxadiazol-3-yl]quinolin-8-yl}methyl)amino]propyl}phosphonic acid] | 3.52
O=P(O)(O)CCCNCc1ccc(-c2noc(CCCc3ccccc3)n2)c2cccnc12 [Compound 2, {3-[({5-[5-(3-Phenylpropyl)-1,2,4-oxadiazol-3-yl]quinolin-8-yl}methyl)amino]propyl}phosphonic acid] | 9.87
O=P(O)(O)CCCNCc1ccc(-c2noc(CCCCCc3ccccc3)n2)c2cccnc12 [Compound 3, {3-[({5-[5-(5-Phenylpentyl)-1,2,4-oxadiazol-3-yl]quinolin-8-yl}methyl)amino]propyl}phosphonic acid] | 46.7
O=P(O)(O)CCCNCc1ccc(-c2noc(CCCCc3ccccc3)n2)c2ccccc12 [Compound 4, {3-[({4-[5-(4-Phenylbutyl)-1,2,4-oxadiazol-3-yl]-1-naphthyl}methyl)amino]propyl}phosphonic acid] | 24.9
O=P(O)(O)OCCNCc1ccc(-c2noc(CCCCc3ccccc3)n2)c2ccccc12 [Compound 6, 2-[({4-[5-(4-Phenylbutyl)-1,2,4-oxadiazol-3-yl]-1-naphthyl}methyl)amino]ethyl dihydrogen phosphate] | 22.4
